Where only a bound is given, the exact number is not on record here.

Data set [1] can be described thus: Oral bioavailability in rat at 20 mg/kg. Type of data set: ADME, organism-based. The following applies: in vivo.
Data set [2] is described as follows: Cmax in rat at 20 mg/kg, po or 2 mg/kg, iv. Type of data set: ADME, organism-based. On the set-up: dose 20 mg/kg, route po. The following applies: in vivo.
Data set [3] in a line: AUC in rat at 20 mg/kg, po or 2 mg/kg, iv. Set-up: dose 20 mg/kg, route po. The following applies: in vivo. Type of data set: ADME, organism-based.
Data set [4] in a line: Inhibition of anti-IgM-stimulated CD20+ B cell activation in human whole blood assessed as measuring CD69 expression level pretreated for 1 hr followed by anti-IgM stimulation measured after 18 hrs by flow cytometry. On the technique in general: In flow cytometry, cells or beads pass a laser one at a time.
In data set [5] the target is Tyrosine-protein kinase Blk (Homo sapiens, UniProt P51451). Kind of data set: Inhibition of BLK (unknown origin) using peptide substrate in presence of ATP by caliper electrophoresis method.
Chain of Tyrosine-protein kinase Blk (P51451 whole entry): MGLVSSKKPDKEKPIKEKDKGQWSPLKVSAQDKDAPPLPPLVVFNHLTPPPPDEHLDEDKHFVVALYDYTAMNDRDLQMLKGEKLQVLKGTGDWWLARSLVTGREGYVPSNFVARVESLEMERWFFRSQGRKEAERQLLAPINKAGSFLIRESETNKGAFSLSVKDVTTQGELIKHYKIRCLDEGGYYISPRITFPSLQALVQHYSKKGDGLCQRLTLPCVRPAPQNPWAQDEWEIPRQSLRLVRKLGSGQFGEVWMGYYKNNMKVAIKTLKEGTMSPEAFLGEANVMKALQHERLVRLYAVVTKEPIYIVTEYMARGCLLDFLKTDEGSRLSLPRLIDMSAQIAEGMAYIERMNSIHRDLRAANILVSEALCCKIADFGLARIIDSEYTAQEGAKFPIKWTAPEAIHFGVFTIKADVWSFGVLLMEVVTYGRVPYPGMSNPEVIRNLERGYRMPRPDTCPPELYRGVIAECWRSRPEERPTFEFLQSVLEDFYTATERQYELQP
Data set [6] concerns the target T1, Cytoplasmic tyrosine-protein kinase BMX (Homo sapiens, UniProt P51813).
T1 sequence (P51813 whole entry): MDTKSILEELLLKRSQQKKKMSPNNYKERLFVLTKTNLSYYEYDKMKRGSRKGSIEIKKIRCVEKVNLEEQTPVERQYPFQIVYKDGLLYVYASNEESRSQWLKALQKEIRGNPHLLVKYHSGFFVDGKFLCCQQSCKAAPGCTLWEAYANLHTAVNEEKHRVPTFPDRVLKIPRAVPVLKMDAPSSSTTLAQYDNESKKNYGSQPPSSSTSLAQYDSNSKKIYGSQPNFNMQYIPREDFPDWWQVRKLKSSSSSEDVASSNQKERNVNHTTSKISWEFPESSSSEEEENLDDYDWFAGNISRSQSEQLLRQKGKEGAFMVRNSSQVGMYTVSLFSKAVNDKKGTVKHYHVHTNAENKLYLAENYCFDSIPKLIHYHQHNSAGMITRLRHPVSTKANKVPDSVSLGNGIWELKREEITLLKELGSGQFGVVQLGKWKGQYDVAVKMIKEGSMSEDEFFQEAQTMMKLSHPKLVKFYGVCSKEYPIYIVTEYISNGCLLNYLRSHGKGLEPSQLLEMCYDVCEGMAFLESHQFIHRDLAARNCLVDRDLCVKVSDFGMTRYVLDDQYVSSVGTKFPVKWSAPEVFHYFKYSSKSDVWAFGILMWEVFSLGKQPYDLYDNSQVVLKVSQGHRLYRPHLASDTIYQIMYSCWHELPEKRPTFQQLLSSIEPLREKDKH
Kind of data set: Inhibition of BMX (unknown origin) using peptide substrate in presence of ATP by caliper electrophoresis method.

Data set [7] addresses Receptor tyrosine-protein kinase erbB-2 (Homo sapiens, UniProt P04626). Kind of data set: Inhibition of ERBB2 (unknown origin) using peptide substrate in presence of ATP by caliper electrophoresis method.
The target in data set [8] is T2, Tyrosine-protein kinase ITK/TSK (Homo sapiens, UniProt Q08881).
T2 sequence (Q08881 whole entry): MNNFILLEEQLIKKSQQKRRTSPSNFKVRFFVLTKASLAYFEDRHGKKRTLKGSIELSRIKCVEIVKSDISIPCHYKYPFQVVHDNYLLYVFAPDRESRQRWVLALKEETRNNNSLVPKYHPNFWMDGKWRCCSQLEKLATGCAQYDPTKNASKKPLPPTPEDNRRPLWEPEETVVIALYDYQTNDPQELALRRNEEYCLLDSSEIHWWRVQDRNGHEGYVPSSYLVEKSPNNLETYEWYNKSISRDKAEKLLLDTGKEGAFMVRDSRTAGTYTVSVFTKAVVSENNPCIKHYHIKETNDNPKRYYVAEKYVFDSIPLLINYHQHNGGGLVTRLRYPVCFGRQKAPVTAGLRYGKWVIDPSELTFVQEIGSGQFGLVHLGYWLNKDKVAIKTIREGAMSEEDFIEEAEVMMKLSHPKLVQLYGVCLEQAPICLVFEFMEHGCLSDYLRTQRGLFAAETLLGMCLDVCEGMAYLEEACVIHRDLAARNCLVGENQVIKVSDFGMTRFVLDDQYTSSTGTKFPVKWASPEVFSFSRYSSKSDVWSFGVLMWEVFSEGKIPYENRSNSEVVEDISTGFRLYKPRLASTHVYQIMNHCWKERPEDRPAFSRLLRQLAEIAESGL
Kind of data set: Inhibition of ITK (unknown origin) using peptide substrate in presence of ATP by caliper electrophoresis method.

In data set [9] the target is T3, Tyrosine-protein kinase Tec (Homo sapiens, UniProt P42680).
T3 sequence (P42680 whole entry): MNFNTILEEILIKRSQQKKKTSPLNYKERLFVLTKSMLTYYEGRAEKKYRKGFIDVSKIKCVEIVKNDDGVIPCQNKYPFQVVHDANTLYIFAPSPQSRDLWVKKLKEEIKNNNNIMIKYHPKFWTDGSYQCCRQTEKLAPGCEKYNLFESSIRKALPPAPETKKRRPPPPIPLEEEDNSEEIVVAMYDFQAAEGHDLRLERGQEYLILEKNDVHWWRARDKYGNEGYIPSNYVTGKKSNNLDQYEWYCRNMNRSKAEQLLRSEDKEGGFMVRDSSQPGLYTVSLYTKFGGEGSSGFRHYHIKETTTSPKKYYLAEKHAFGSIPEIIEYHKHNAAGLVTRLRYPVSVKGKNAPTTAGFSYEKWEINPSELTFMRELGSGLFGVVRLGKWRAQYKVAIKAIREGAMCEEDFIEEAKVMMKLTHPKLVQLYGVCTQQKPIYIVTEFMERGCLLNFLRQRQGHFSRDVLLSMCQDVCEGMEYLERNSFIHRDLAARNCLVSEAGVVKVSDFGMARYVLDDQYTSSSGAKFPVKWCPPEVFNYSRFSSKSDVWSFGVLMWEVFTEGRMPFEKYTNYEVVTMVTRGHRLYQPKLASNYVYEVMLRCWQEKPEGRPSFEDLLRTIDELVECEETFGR
Kind of data set: Inhibition of TEC (unknown origin) using peptide substrate in presence of ATP by caliper electrophoresis method.

The target of data set [10] is T4, Tyrosine-protein kinase TXK (Homo sapiens, UniProt P42681).
T4 sequence (P42681 whole entry): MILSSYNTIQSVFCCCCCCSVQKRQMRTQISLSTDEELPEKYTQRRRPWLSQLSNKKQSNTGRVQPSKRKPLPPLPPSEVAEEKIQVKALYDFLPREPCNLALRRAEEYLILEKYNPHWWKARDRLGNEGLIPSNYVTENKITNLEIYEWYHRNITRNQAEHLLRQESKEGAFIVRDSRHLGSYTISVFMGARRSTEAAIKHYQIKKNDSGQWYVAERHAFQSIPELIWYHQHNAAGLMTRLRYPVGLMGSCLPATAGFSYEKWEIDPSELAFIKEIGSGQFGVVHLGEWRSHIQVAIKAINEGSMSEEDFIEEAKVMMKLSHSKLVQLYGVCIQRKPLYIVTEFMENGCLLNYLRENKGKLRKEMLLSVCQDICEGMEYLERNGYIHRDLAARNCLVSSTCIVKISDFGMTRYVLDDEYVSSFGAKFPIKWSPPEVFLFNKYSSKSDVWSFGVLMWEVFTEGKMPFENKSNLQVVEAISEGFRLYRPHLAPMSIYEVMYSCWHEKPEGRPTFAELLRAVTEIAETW
Kind of data set: Inhibition of RLK (unknown origin) using peptide substrate in presence of ATP by caliper electrophoresis method.

Data set [11] in a line: Permeability across apical to basolateral membrane in human Caco-2 cells. The following applies: read-out: permeability. In kind it is ADME, cell-based.
Data set [12] in a line: Permeability across basolateral to apical membrane in human Caco-2 cells. In kind it is ADME, cell-based. To be noted: read-out: permeability.

Chain of Receptor tyrosine-protein kinase erbB-2 (P04626 whole entry): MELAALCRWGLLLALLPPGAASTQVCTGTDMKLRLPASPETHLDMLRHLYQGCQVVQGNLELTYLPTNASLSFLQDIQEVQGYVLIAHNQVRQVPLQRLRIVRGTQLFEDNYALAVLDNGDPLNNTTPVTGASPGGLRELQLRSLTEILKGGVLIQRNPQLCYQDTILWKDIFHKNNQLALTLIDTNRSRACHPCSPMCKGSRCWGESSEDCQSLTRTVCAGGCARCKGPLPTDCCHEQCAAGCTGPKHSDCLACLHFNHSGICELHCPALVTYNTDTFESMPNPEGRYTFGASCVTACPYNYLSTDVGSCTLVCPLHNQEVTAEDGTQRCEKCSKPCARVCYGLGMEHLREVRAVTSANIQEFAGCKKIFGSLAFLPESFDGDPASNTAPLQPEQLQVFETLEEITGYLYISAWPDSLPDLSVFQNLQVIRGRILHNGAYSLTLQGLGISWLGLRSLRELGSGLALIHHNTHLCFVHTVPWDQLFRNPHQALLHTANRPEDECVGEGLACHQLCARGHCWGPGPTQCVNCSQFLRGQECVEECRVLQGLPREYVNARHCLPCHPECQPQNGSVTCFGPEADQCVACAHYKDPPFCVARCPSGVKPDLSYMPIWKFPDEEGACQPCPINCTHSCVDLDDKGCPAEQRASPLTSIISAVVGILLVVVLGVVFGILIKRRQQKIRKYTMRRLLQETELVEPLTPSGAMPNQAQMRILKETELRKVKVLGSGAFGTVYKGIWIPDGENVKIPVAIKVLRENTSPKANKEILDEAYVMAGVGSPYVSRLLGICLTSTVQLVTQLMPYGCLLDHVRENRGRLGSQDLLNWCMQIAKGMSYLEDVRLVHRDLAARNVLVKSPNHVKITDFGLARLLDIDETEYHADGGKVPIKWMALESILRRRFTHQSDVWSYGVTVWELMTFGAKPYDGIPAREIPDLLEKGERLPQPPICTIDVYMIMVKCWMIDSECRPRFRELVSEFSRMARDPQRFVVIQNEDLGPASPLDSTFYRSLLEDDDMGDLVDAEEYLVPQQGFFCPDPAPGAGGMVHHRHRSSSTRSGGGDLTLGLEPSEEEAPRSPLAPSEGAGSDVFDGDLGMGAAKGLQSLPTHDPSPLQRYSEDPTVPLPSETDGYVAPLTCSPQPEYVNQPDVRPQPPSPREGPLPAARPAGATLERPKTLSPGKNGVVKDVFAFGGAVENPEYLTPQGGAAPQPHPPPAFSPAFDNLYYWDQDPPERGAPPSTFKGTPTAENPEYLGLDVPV

One may read the bioavailability as the share of a dose that reaches the circulation, judged against a reference dose that is usually intravenous. Low readings indicate poor availability, high ones good availability. The Cmax is the maximum level reached in the sampled fluid or tissue. What is called AUC is the area under the concentration-time curve, a measure of exposure. As a reminder, the IC50 is the concentration that gives 50% inhibition. As for `CN1CCN(C(C)(C)/C=C(\C#N)C(=O)N2CCC[C@@H](n3nc(-c4ccc(Oc5ccccc5)cc4F)c4c(N)ncnc43)C2)CC1`, the bioavailability in data set [1] amounted to 20.2%. In [2], the Cmax worked out at 0.0965 µg/mL. Moreover, the AUC in data set [3] (read-out: AUC) came out at 0.568 µg·h/mL. Besides, the IC50 in data set [4] came out at 0.117 µM; in data set [5], 0.0005 µM; in data set [6] it was 0.0006 µM; in data set [7], 4.35 µM; in data set [8], 0.11 µM; in [9] it was 0.0005 µM. Also, the IC50 in data set [10] stood at 0.0012 µM. Also, in data set [11], the Papp A→B was found to be 10 nm/s. In data set [12], the Papp B→A came to 135 nm/s.

Regarding `CC(C)(/C=C(/C#N)C(=O)N1CCC[C@@H]1Cn1nc(-c2ccc(Oc3ccccc3)cc2F)c2c(N)ncnc21)N1CCOCC1`, the bioavailability in [1] came to 17.3%. In data set [2], the highest level (Cmax) was 0.406 µg/mL. Moreover, the AUC in data set [3] (read-out: AUC) turned out to be 0.478 µg·h/mL. In addition, the IC50 was 0.149 µM in [4]; 0.092 µM in [5]; 0.0101 µM in data set [6]; > 5 µM in [7]; > 5 µM in data set [8]; 0.0045 µM in data set [9]. The IC50 in data set [10] was 0.0448 µM. Moreover, the Papp A→B in data set [11] was found to be 68 nm/s. Moreover, the Papp B→A in data set [12] turned out to be 165 nm/s.

As to `CC(C)(C)/C=C(\C#N)C(=O)N1CCC[C@@H](n2nc(-c3ccc(Oc4ccccc4)cc3F)c3c(N)ncnc32)C1` [ATUZABRUTINIB], in data set [1] (po, 20 mg/kg), the F came out at 21.1%. In [2], this compound had a Cmax of 0.326 µg/mL. The AUC in data set [3] worked out at 1.071 µg·h/mL. For the same compound, the IC50 in [4] is 0.216 µM; in data set [5], 0.0022 µM; in data set [6], 0.0018 µM; in data set [7] it was 1.08 µM; in data set [8], 0.303 µM; in [9], 0.0019 µM. In addition, in [10], the IC50 was 0.0034 µM. Further, the Papp A→B in [11] was 5 nm/s. Moreover, the Papp B→A in [12] was determined as 6 nm/s.

Source of the values: ChEMBL document CHEMBL5104103 (J Med Chem, 2022).
